# Results published in patent US20260364072A1, “METHODS FOR PROMOTING EXPANSION OF HUMAN CD34+ CELLS IN VIVO AND FOR PROMOTING NEURAL REGENERATION” (THE REGENTS OF THE UNIVERSITY OF CALIFORNIA, priority 2023, published 2026).
# What was measured:
# [1] = test system: sAML LSC, MF HPC, normal HSPC; experiment: Clonogenic survival and replating (self-renewal) assays in stromal co-culture; assay type: cell-based, human
# Description: (FIG. 28D, FIG. 28E) Quantification of colony formation (survival, FIG. 28D) and replating (self-renewal, FIG. 28E) of high-risk MF HPC and sAML LSC compared with cord blood (CB) and aged versus young normal bone marrow (a-NBM, y-NBM) controls treated with Rebecsinib at increasing concentrations. Bar graphs show data as mean±SEM and statistical analyses by pairwise t-test and dose-response assays show data as mean±SD and statistical analyses by one-way ANOVA.
# Primary patient samples and normal bone marrow controls used for functional assays are described in Table 1. Human HS5 and HS27a^45 or mouse bone marrow cells lines SL (hSCF and hIL3) and M2 (hIL3 and hG-CSF) were irradiated and then mixed at a ratio of 1:1 and incubated overnight for attachment. […] After 2 weeks primary colonies (more than 40 cells) were counted and individual multilineage colonies were plucked, cells resuspended, and re-plated again in fresh MC. Secondary colonies were counted after another 14 days. […]
# Human HS5 and HS27a^45 or mouse bone marrow cells lines SL (hSCF and hIL3) and M2 (hIL3 and hG-CSF) were irradiated and then mixed at a ratio of 1:1 and incubated overnight for attachment. […] After 2 weeks primary colonies (more than 40 cells) were counted and individual multilineage colonies were plucked, cells resuspended and re-plated again in fresh MC. Secondary colonies were counted after another 14 days. […]
# SF3B3 = SF3B3 splice biomarker analysis in human CD45+ cells from normal HSPC engrafted mice; assay type: in vivo
# Description: After completion of treatment and engraftment analyses of in vivo normal HSPC assays, total human hematopoietic cells (CD45^+) were selected for splice biomarker analyses to determine sensitivity of normal human hematopoietic cells to Rebecsinib compared with sAML LSC.
# For quantitative analysis of splice isoform expression, RNA editing rates, and whole gene expression by qRT-PCR, cells or tissue fragments were harvested in RNA lysis buffer and total RNA was extracted using RNeasy mini or micro extraction kits (QIAGEN, Germantown, MD) following the manufacturer's protocol including a DNase incubation step to digest any trace genomic DNA present. Levels of ADAR1 variants and LSC-specific transcripts were quantified by qRT-PCR as previously described.^14 RNA-editing site-specific qRT-PCR (RESSqPCR) was performed for variants in AZIN1 transcripts.^53 Additional species-specific primers were also designed to quantify intron retention rates in cells treated with Rebecsinib as a biomarker of response to RNA splicing modulation. Specifically, for the two-step SYBR-green based assays, as previously described,^7,14,53 100-1000 ng of RNA were subjected to cDNA synthesis using the SUPERSCRIPT III™ (ThermoFisher Scientific) kit followed by qRT-PCR using SYBR GreenER (ThermoFisher Scientific) master mix according to the manufacturer's recommended procedures. qRT-PCR was performed using SYBR GREENER SUPER MIX™ (Life Technologies) on BioRad iQ5™, C1000 TOUCH™, or BioRad CFX384™ instruments. Human splice isoform-specific, RNA editing site-specific qPCR (RESSqPCR)^53. Primer sets that have not been previously published were designed and tested for efficiency followed by analyses in samples exposed to Rebecsinib, with species-specific HPRT primers used as controls. Samples with Ct<35 for the species-specific reference gene, HPRT, were included in analyses. Relative mRNA expression values were calculated using the 2^−ΔCT method, with normalization to untreated or vehicle-treated controls.^54 […]
smiles,measurement,setting,value
CC[C@H](OC)[C@@H](C)[C@H]1O[C@@H]1[C@@H](O)[C@H](C)/C=C/C=C(\C)[C@H]1OC(=O)C[C@H](O)CC[C@@](C)(O)[C@@H](OC(C)=O)/C=C/[C@@H]1C [Rebecsinib],effect on normal HSPC and mature hematopoietic progeny,"[1]; 1 μM, compared with DMSO (vehicle)",no significant differences
same,clonogenic survival and replating (self-renewal) sensitivity,"[1]; sAML LSC vs MF HPC or normal cord blood, young or aged bone marrow HPCs",greater sensitivity of secondary AML (sAML) LSC
same,SF3B3 intron retention in bone marrow,SF3B3; normal human CD45+ cells,no changes in SF3B3 intron retention
same,SF3B3 intron retention in spleen,SF3B3; normal human CD45+ cells,trend toward changes in the spleen that were not statistically significant
same,sensitivity of sAML LSC to splicing modulation versus normal HSPCs,"SF3B3; therapeutic index, humanized mouse models",sAML LSC are significantly more sensitive to splicing modulation than normal HSPCs
